From US6914045B2, “Glycopeptide antibiotics” (Wyeth Holdings Corporation, priority 2001, dated 2005)

Key:
Test in all cases: in vitro antibacterial evaluation, MIC by broth dilution
Type in all cases: cell-based
Enterococcus sp. = conditions: broth dilution, 18 hours at 35° C.
Method in brief: (§1)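 Broth dilution per NCCLS standard M7-A2 in Muller-Hinton II […], with an inoculum of 5×10^5 CFU/mL and antibiotic spanning 64-0.06 μg/mL. The MIC is the lowest concentration that inhibits growth of the organism.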

Escherichia coli = conditions: 18 hours at 35° C.; for MIC Escherichia coli (ATCC 25922): strain ATCC 25922
Method in brief: as §1

Staphylococcus sp. = conditions: broth dilution, 18 hours at 35° C.
Method in brief: as §1

Streptococcus sp. = conditions: broth dilution, 18 hours at 35° C.
Method in brief: as §1

[1] = Enterococcus faecalis (ATCC 29212)
[2] = Enterococcus faecalis (GC 2242)
[3] = Enterococcus faecalis (GC 4552)
[4] = Enterococcus faecalis (GC 4553)
[5] = Enterococcus faecalis (GC 4554)
[6] = inoculum 5×10^5 CFU/mL, strain GC 1131
[7] = Streptococcus agalactiae (GC 4564)
[8] = Streptococcus pneumoniae (GC 4565)

COC1CCC2(C)C(CCC3C2CCC2(C)C(C(C)CCC4OCC5OC(OC6C(CO)OC(Oc7ccc(CC8NC(=O)C(C(C)c9ccccc9)NC(=O)CNC(=O)C(CO)NC(=O)C(C(O)C9CNC(=N)N9C9OC(CO)C(O)C(O)C9O)NC(=O)C(C(O)C9CNC(=N)N9)NC8=O)cc7)C(O)C6O)C(O)C(O)C5O4)CCC32)C1 (stereo not shown) [Example 130]
64 mg/L: MIC Enterococcus faecalis (GC 3059) (Enterococcus sp.; Enterococcus faecalis (GC 3059)) | MIC Enterococcus faecium (GC 4556) (Enterococcus sp.; Enterococcus faecium (GC 4556)) | MIC Enterococcus faecalis (GC 3059) (Enterococcus sp.; strain GC 3059) | MIC Enterococcus faecium (GC 4556) (Enterococcus sp.; strain GC 4556) | MIC Escherichia coli (GC 4560) (Escherichia coli; strain GC 4560)
8 mg/L: MIC Enterococcus faecalis (GC 4553) (Enterococcus sp.; [4]) | MIC Enterococcus faecium (GC 2243) (Enterococcus sp.; Enterococcus faecium (GC 2243)) | MIC Enterococcus faecium (GC 2243) (Enterococcus sp.; strain GC 2243) | MIC Enterococcus faecalis (GC 4553) (Enterococcus sp.; strain GC 4553) | MIC Streptococcus agalactiae (GC 4564) (Streptococcus sp.; [7]) | MIC Streptococcus pneumoniae (ATCC 6301) (Streptococcus sp.; Streptococcus pneumoniae (ATCC 6301)) | MIC Streptococcus pneumoniae (ATCC 6301) (Streptococcus sp.; strain ATCC 6301) | MIC Streptococcus agalactiae (GC 4564) (Streptococcus sp.; strain GC 4564)
4 mg/L: MIC Streptococcus pneumoniae (GC 4565) (Streptococcus sp.; [8]) | MIC Streptococcus pneumoniae (GC 4565) (Streptococcus sp.; strain GC 4565)
16 mg/L: MIC Enterococcus avium (GC 4558) (Enterococcus sp.; Enterococcus avium (GC 4558)) | MIC Enterococcus avium (GC 4558) (Enterococcus sp.; strain GC 4558) | MIC Coagulase Negative Staphylococcus (GC 4549) (Staphylococcus sp.; strain GC 4549) | MIC Streptococcus pyogenes (GC 4563) (Streptococcus sp.; Streptococcus pyogenes (GC 4563)) | MIC Streptococcus pyogenes (GC 4563) (Streptococcus sp.; strain GC 4563)
>64 mg/L: MIC Escherichia coli (ATCC 25922) (Escherichia coli) | MIC Escherichia coli (GC 4559) (Escherichia coli; strain GC 4559)
32 mg/L: MIC Enterococcus faecalis (ATCC 29212) (Enterococcus sp.; [1]) | MIC Enterococcus faecalis (GC 2242) (Enterococcus sp.; [2]) | MIC Enterococcus faecalis (GC 2691) (Enterococcus sp.; Enterococcus faecalis (GC 2691)) | MIC Enterococcus faecalis (GC 4552) (Enterococcus sp.; [3]) | MIC Enterococcus faecalis (GC 4554) (Enterococcus sp.; [5]) | MIC Enterococcus faecalis (GC 6189) (Enterococcus sp.; Enterococcus faecalis (GC 6189)) | MIC Enterococcus faecium (GC 4557) (Enterococcus sp.; Enterococcus faecium (GC 4557)) | MIC Enterococcus faecalis (ATCC 29212) (Enterococcus sp.; strain ATCC 29212) | MIC Enterococcus faecalis (GC 2242) (Enterococcus sp.; strain GC 2242) | MIC Enterococcus faecalis (GC 2691) (Enterococcus sp.; strain GC 2691) | MIC Enterococcus faecalis (GC 4552) (Enterococcus sp.; strain GC 4552) | MIC Enterococcus faecalis (GC 4554) (Enterococcus sp.; strain GC 4554) | MIC Enterococcus faecium (GC 4557) (Enterococcus sp.; strain GC 4557) | MIC Enterococcus faecalis (GC 6189) (Enterococcus sp.; strain GC 6189) | MIC Staphylococcus aureus (ATCC 29213) (Staphylococcus sp.) | MIC Staphylococcus aureus (GC 1131) (Staphylococcus sp.) | MIC Staphylococcus aureus (GC 3051) (Staphylococcus sp.) | MIC Staphylococcus aureus (GC 3053) (Staphylococcus sp.) | MIC Staphylococcus aureus (GC 4541) (Staphylococcus sp.) | MIC Staphylococcus aureus (GC 4542) (Staphylococcus sp.) | MIC Staphylococcus aureus (GC 4544) (Staphylococcus sp.) | MIC Staphylococcus aureus (GC 4545) (Staphylococcus sp.) | MIC Staphylococcus aureus (GC 1131) (Staphylococcus sp.; [6]) | MIC Staphylococcus aureus (ATCC 29213) (Staphylococcus sp.; strain ATCC 29213) | MIC Staphylococcus aureus (GC 3051) (Staphylococcus sp.; strain GC 3051) | MIC Staphylococcus aureus (GC 3053) (Staphylococcus sp.; strain GC 3053) | MIC Staphylococcus aureus (GC 4541) (Staphylococcus sp.; strain GC 4541) | MIC Staphylococcus aureus (GC 4542) (Staphylococcus sp.; strain GC 4542) | MIC Staphylococcus aureus-SMITH (GC 4543) (Staphylococcus sp.; strain GC 4543) | MIC Staphylococcus aureus (GC 4544) (Staphylococcus sp.; strain GC 4544) | MIC Staphylococcus aureus (GC 4545) (Staphylococcus sp.; strain GC 4545) | MIC Staphylococcus haemolyticus (GC 4546) (Staphylococcus sp.; strain GC 4546) | MIC Coagulase Negative Staphylococcus (GC 4547) (Staphylococcus sp.; strain GC 4547) | MIC Coagulase Negative Staphylococcus (GC 4548) (Staphylococcus sp.; strain GC 4548) | MIC Coagulase Negative Staphylococcus (GC 4551) (Staphylococcus sp.; strain GC 4551) | MIC Coagulase Negative Staphylococcus (GC 6257) (Staphylococcus sp.; strain GC 6257) | MIC Staphylococcus aureus-SMITH (GC 4543) (Staphylococcus sp.; strain SMITH GC 4543)
1 mg/L: MIC Streptococcus pneumoniae (GC 1894) (Streptococcus sp.; Streptococcus pneumoniae (GC 1894)) | MIC Streptococcus pneumoniae (GC 1894) (Streptococcus sp.; strain GC 1894)

CCCCCC1OCC2OC(OC3C(CO)OC(Oc4ccc(CC5NC(=O)C(C(C)c6ccccc6)NC(=O)CNC(=O)C(CO)NC(=O)C(C(O)C6CNC(=N)N6C6OC(CO)C(O)C(O)C6O)NC(=O)C(C(O)C6CNC(=N)N6)NC5=O)cc4)C(O)C3O)C(O)C(O)C2O1 (stereo not drawn) [Example 108, Cyclo[glycyl-β-methylphenylalanyl-O-[4-O-(4,6-O-hexylidenehexopyranosyl)hexopyranosyl]-tyrosyl-3-(2-iminoimidazolidin-4-yl)seryl-3-(3-hexopyranosyl-2-iminoimidazolidin-4-yl)-serylseryl]]
<0.5 mg/L: MIC Coagulase Negative Staphylococcus (GC 4548) (Staphylococcus sp.) | MIC Coagulase Negative Staphylococcus (GC 4548) (Staphylococcus sp.; strain GC 4548) | MIC Streptococcus agalactiae (GC 4564) (Streptococcus sp.; [7]) | MIC Streptococcus pneumoniae (GC 4565) (Streptococcus sp.; [8]) | MIC Streptococcus pyogenes (ID-3187) (Streptococcus sp.; Streptococcus pyogenes (ID-3187)) | MIC Streptococcus agalactiae (GC 4564) (Streptococcus sp.; strain GC 4564) | MIC Streptococcus pneumoniae (GC 4565) (Streptococcus sp.; strain GC 4565) | MIC Streptococcus pyogenes (ID-3187) (Streptococcus sp.; strain ID-3187)
32 mg/L: MIC Escherichia coli (ATCC 25922) (Escherichia coli)
1 mg/L: MIC Enterococcus faecium (GC 4557) (Enterococcus sp.; Enterococcus faecium (GC 4557)) | MIC Enterococcus faecium (GC 4557) (Enterococcus sp.; strain GC 4557) | MIC Coagulase Negative Staphylococcus (GC 4547) (Staphylococcus sp.) | MIC Coagulase Negative Staphylococcus (GC 4549) (Staphylococcus sp.) | MIC Coagulase Negative Staphylococcus (GC 4551) (Staphylococcus sp.) | MIC Coagulase Negative Staphylococcus (ID-3941) (Staphylococcus sp.) | MIC Staphylococcus aureus (ATCC 29213) (Staphylococcus sp.) | MIC Staphylococcus aureus (GC 1131) (Staphylococcus sp.) | MIC Staphylococcus aureus (GC 4541) (Staphylococcus sp.) | MIC Staphylococcus aureus (GC 4542) (Staphylococcus sp.) | MIC Staphylococcus aureus (GC 4544) (Staphylococcus sp.) | MIC Staphylococcus aureus (GC 4545) (Staphylococcus sp.) | MIC Staphylococcus aureus-SMITH (GC 4543) (Staphylococcus sp.) | MIC Staphylococcus haemolyticus (GC 4546) (Staphylococcus sp.) | MIC Staphylococcus aureus (GC 1131) (Staphylococcus sp.; [6]) | MIC Staphylococcus aureus (ATCC 29213) (Staphylococcus sp.; strain ATCC 29213) | MIC Staphylococcus aureus (GC 4541) (Staphylococcus sp.; strain GC 4541) | MIC Staphylococcus aureus (GC 4542) (Staphylococcus sp.; strain GC 4542) | MIC Staphylococcus aureus (GC 4544) (Staphylococcus sp.; strain GC 4544) | MIC Staphylococcus aureus (GC 4545) (Staphylococcus sp.; strain GC 4545) | MIC Staphylococcus haemolyticus (GC 4546) (Staphylococcus sp.; strain GC 4546) | MIC Coagulase Negative Staphylococcus (GC 4547) (Staphylococcus sp.; strain GC 4547) | MIC Coagulase Negative Staphylococcus (GC 4549) (Staphylococcus sp.; strain GC 4549) | MIC Coagulase Negative Staphylococcus (GC 4551) (Staphylococcus sp.; strain GC 4551) | MIC Coagulase Negative Staphylococcus (ID-3941) (Staphylococcus sp.; strain ID-3941) | MIC Staphylococcus aureus-SMITH (GC 4543) (Staphylococcus sp.; strain SMITH GC 4543)
2 mg/L: MIC Enterococcus avium (GC 4558) (Enterococcus sp.; Enterococcus avium (GC 4558)) | MIC Enterococcus faecalis (ATCC 29212) (Enterococcus sp.; [1]) | MIC Enterococcus faecalis (GC 2242) (Enterococcus sp.; [2]) | MIC Enterococcus faecalis (GC 4552) (Enterococcus sp.; [3]) | MIC Enterococcus faecalis (GC 4553) (Enterococcus sp.; [4]) | MIC Enterococcus faecalis (GC 4554) (Enterococcus sp.; [5]) | MIC Enterococcus faecium (GC 2243) (Enterococcus sp.; Enterococcus faecium (GC 2243)) | MIC Enterococcus faecium (GC 4556) (Enterococcus sp.; Enterococcus faecium (GC 4556)) | MIC Enterococcus faecalis (ATCC 29212) (Enterococcus sp.; strain ATCC 29212) | MIC Enterococcus faecalis (GC 2242) (Enterococcus sp.; strain GC 2242) | MIC Enterococcus faecium (GC 2243) (Enterococcus sp.; strain GC 2243) | MIC Enterococcus faecalis (GC 4552) (Enterococcus sp.; strain GC 4552) | MIC Enterococcus faecalis (GC 4553) (Enterococcus sp.; strain GC 4553) | MIC Enterococcus faecalis (GC 4554) (Enterococcus sp.; strain GC 4554) | MIC Enterococcus faecium (GC 4556) (Enterococcus sp.; strain GC 4556) | MIC Enterococcus avium (GC 4558) (Enterococcus sp.; strain GC 4558)
